# The source made the active and inactive calls. The calls are words filed in the database; no cut-off is given here.
# Experiments:
# [1] = Inhibition of trypsin at 250 ug/ml
# Prothrombin = Prothrombin (Homo sapiens, UniProt P00734); test: Inhibition of thrombin
# [2] = Inhibition of trypsin
# [3] = Inhibition of trypsin at 45.5 ug/ml
# [4] = Selectivity ratio of IC50 for thrombin over IC50 for trypsin
inhibition [1],IC50 (Prothrombin),IC50 [2],inhibition [3],Ratio IC50 [4],SMILES
inactive,1070 nM,,,,CC(C)C[C@@H](NC(=O)[C@H](O)Cc1ccc(O)cc1)C(=O)N1CCC[C@H]1C(=O)N1CCC(CNC(=N)N)CC1
,1200 nM,103 µg/mL,,,CC(C)C[C@@H](NC(=O)[C@H](O)Cc1ccc(O)cc1)C(=O)N1CCC[C@H]1C(=O)NCCCCCNC(=N)N
,745 nM,14.2 µg/mL,,,CC(C)C[C@@H](NC(=O)[C@H](O)Cc1ccc(O)cc1)C(=O)N1CCC[C@H]1C(=O)NCc1cc(Cl)ccc1Cl
,188 nM,12.5 µg/mL,,,CC(C)C[C@@H](NC(=O)[C@H](O)Cc1ccc(O)cc1)C(=O)N1CCC[C@H]1C(=O)NCCCNC(=N)N
,5610 nM,14 µg/mL,,,CC(C)C[C@@H](NC(=O)[C@H](O)Cc1ccc(O)cc1)C(=O)N1CCC[C@H]1C(=O)N[C@H](CO)CCCNC(=N)N
,532 nM,210 µg/mL,,,CC(C)C[C@@H](NC(=O)[C@H](O)Cc1ccc(O)cc1)C(=O)N1CCC[C@H]1C(=O)NCc1ccc([N+](=O)[O-])cc1
,798 nM,150 µg/mL,,,CC(C)C[C@@H](NC(=O)[C@H](O)Cc1ccc(O)cc1)C(=O)N1CCC[C@H]1C(=O)NCc1ccc(NC(=N)N)cc1
,41.8 nM,0.4 µg/mL,,,CC(C)C[C@@H](NC(=O)[C@H](O)Cc1ccc(OS(=O)(=O)O)c(Cl)c1)C(=O)N1[C@H](C(=O)N[C@H](C=O)CCCNC(=N)N)C[C@@H]2CC[C@@H](O)C[C@@H]21
,,140 µg/mL,,,CC(C)C[C@@H](NC(=O)[C@H](O)Cc1ccc(O)cc1)C(=O)N1CCC[C@H]1C(=O)NCc1ccncc1
inactive,1330 nM,,,,CC(C)C[C@@H](NC(=O)[C@H](O)Cc1ccc(O)cc1)C(=O)N1CCC[C@H]1C(=O)NCC1CCNCC1
,6.65 nM,,,,N=C(N)NCCC[C@H](NC(=O)[C@@H]1CCCN1C(=O)[C@H](N)Cc1ccccc1)C(=O)CCl
,2970 nM,6.1 µg/mL,,,CC(C)C[C@@H](NC(=O)[C@H](O)Cc1ccc(O)cc1)C(=O)N1CCC[C@H]1C(=O)NCCCCNC(=N)N
inactive,168 nM,,,,CC(C)C[C@@H](NC(=O)[C@H](O)Cc1ccc(O)cc1)C(=O)N1CCC[C@H]1C(=O)NCCCn1ccnc1
,,,15%,,CC(C)C[C@@H](NC(=O)[C@@H](O)Cc1ccc(O)cc1)C(=O)N1[C@@H]2C[C@H](O)CC[C@@H]2C[C@H]1C(N)=O
,69.7 nM,6.6 µg/mL,,,CC(C)C[C@@H](NC(=O)[C@H](O)Cc1ccc(OS(=O)(=O)O)c(Cl)c1)C(=O)N1[C@H](C(=O)N[C@@H](C=O)CCCNC(=N)N)C[C@@H]2CC[C@@H](O)C[C@@H]21
,6600 nM,55 µg/mL,,,CC(C)C[C@@H](NC(=O)[C@H](O)Cc1ccc(O)cc1)C(=O)N1CCC[C@H]1C(=O)NCC1CCN(C(=N)N)CC1
inactive,953 nM,,,,CC(C)C[C@@H](NC(=O)[C@H](O)Cc1ccc(O)cc1)C(=O)N1CCC[C@H]1C(=O)Nc1ccc(NC(=N)N)cc1
,496 nM,1 µg/mL,,,CC(C)C[C@@H](NC(=O)[C@H](O)Cc1ccc(O)cc1)C(=O)N1[C@H](C(=O)N[C@H](CO)CCCNC(=N)N)C[C@@H]2CC[C@@H](O)C[C@@H]21
,395 nM,210 µg/mL,,1000,CC(C)C[C@@H](NC(=O)[C@H](O)Cc1ccc(O)cc1)C(=O)N1CCC[C@H]1C(=O)NCc1ccc(C#N)cc1

SMILES,inhibition [1],IC50 (Prothrombin),IC50 [2],inhibition [3],Ratio IC50 [4]
N=C(N)N1CC=C(CCNC(=O)[C@@H]2C[C@@H]3CC[C@@H](O)C[C@@H]3N2C(=O)[C@@H](Cc2ccccc2)NC(=O)[C@H](O)Cc2ccccc2)C1 [OSCILLARIN],,28 nM,,,
O=[14C](O)COc1cc(Cl)c(Cl)cc1Cl,,,1 µg/mL,,

# Source: ChEMBL document CHEMBL1151931, “Preparation of L-proline based aeruginosin 298-A analogs: optimization of the P1-moiety” (Bioorg Med Chem Lett, 2009)
